Test results published in patent publication US10266548B2, “Substituted benzylindazoles for use as Bub1 kinase inhibitors in the treatment of hyperproliferative diseases” (Bayer Intellectual Property GmbH, priority 2011, dated 2019).
Counter-ions that a name gives are not always drawn. Like-named read-outs stand apart in the source and are kept apart here.

Key:
HeLa cells = assay: Proliferation assay (HeLa cell line); assay type: cell-based
Procedure: Cultivated tumor cells (cells were ordered from ATCC, except HeLa-MaTu and HeLa-MaTu-ADR, which were ordered from EPO-GmbH, Berlin) were plated at a density of 1000 to 5000 cells/well, depending on the growth rate of the respective cell line, in a 96-well multititer plate in 200 μL of their respective growth medium supplemented 10% fetal calf serum. After 24 hours, the cells of one plate (zero-point plate) were stained with crystal violet (see below), while the medium of the other plates was replaced by fresh culture medium (200 μl), to which the test substances were added in various concentrations (0 μM, as well as in the range of 0.001-10 μM; the final concentration of the solvent dimethyl sulfoxide was 0.5%). The cells were incubated for 4 days in the presence of test substances. Cell proliferation was determined by staining the cells with crystal violet: the cells were fixed by adding 20 μl/measuring point of an 11% glutaric aldehyde solution for 15 minutes at room temperature. After three washing cycles of the fixed cells with water, the plates were dried at room temperature. The cells were stained by adding 100 μl/measuring point of a 0.1% crystal violet solution (pH 3.0). After three washing cycles of the stained cells with water, the plates were dried at room temperature. The dye was dissolved by adding 100 μl/measuring point of a 10% acetic acid solution. […] The change of cell number, in percent, was calculated by normalization of the measured values to the aborbtion values of the zero-point plate (=0%) and the absorbtion of the untreated (0 μm) cells (=100%). The IC50 values were determined by means of a 4 parameter fit using the company's own software.

[1] = biological target: catalytic domain of human Bub1 (amino acids 704-1085) (Homo sapiens (Human), UniProt O43683); assay: Bub1 kinase assay (TR-FRET); assay type: biochemical; conditions: 10 μM ATP, 1 μM peptide substrate; read-out: Biological Assay 1: Bub1 kinase assay median IC50
Chain of catalytic domain of human Bub1 (amino acids 704-1085) (O43683 704-1085): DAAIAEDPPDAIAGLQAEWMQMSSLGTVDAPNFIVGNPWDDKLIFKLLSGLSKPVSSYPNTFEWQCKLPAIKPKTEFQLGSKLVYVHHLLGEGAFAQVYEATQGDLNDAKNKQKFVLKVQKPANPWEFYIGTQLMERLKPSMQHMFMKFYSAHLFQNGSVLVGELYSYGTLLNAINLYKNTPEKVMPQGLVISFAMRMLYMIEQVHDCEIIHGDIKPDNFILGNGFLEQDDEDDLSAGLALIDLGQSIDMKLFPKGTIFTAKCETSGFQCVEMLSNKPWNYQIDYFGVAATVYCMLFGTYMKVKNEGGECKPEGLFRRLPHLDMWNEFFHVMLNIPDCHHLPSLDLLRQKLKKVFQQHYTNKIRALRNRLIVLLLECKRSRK
Procedure: To this end, 100-fold concentrated compound solutions (in DMSO) were previously prepared by serial dilution (1:3.4) of 2 mM stocks in a clear low volume 384-well source microtiter plate (Greiner Bio-One, Frickenhausen, Germany), from which 50 nl of compounds were transferred into a black low volume test microtiter plate from the same supplier. […] The resulting mixture (5 μl final volume) was incubated at 22° C. during 60 min., and the reaction was stopped by the addition of 5 μl of an aqueous EDTA-solution (50 mM EDTA, in 100 mM HEPES pH 7.5 and 0.2% (w/v) bovine serum albumin) which also contained the TR-FRET detection reagents (0.2 μM streptavidin-XL665 [Cisbio Bioassays, Codolet, France] and 1 nM anti-phosho-Serine antibody [Merck Millipore, cat. #35-001] and 0.4 nM LANCE EU-W1024 labeled anti-mouse IgG antibody [Perkin-Elmer, product no. AD0077, alternatively a Terbium-cryptate-labeled anti-mouse IgG antibody from Cisbio Bioassays can be used]). The stopped reaction mixture was further incubated 1 h at 22° C. in order to allow the formation of complexes between peptides and detection reagents. Subsequently, the amount of product was evaluated by measurement of the resonance energy transfer from the Eu-chelate-antlbody complex recognizing the Phosphoserlne residue to the streptavidin-XL665 bound to the biotin moiety of the peptide. […] IC50 values were calculated by fitting the normalized inhibition data to a 4-parameter logistic equation (Minimum, Maximum, IC50, Hill; Y=Max+(Min−Max)/(1+(X/IC50)Hill)) using a Bayer-proprietary analysis software.

[2] = 4 days, crystal violet, read-out: Biological Assay 2: Proliferation assay (HeLa cell line) median IC50
[3] = Homo sapiens, 96 h, 4 days, crystal violet, read-out: Biological Assay 2: Proliferation assay (HeLa cell line) median IC50
[4] = Homo sapiens, 96 h, read-out: Biological Assay 2: Proliferation assay (HeLa cell line) median IC50

SMILES | IC50 [1] | IC50 (HeLa cells; [3]) | also measured
CCOc1cc(F)c(Cn2nc(-c3ncc(OCC[S+](C)[O-])c(Nc4ccncc4)n3)c3ccccc32)c(F)c1 (single isomer, unassigned) [Example 36-1, 2-[1-(4-ethoxy-2,6-difluorobenzyl)-1H-indazol-3-yl]-5-[2-(methylsulfinyl)ethoxy]-N-(pyridin-4-yl)pyrimidin-4-amine] | – | – | IC50 (HeLa cells; [2]): 3.3 µM
CCOc1cc(F)c(Cn2nc(-c3ncc(OCC[S+](C)[O-])c(Nc4ccncc4)n3)c3ccccc32)c(F)c1 (single isomer, unassigned) [Example 36-2, 2-[1-(4-ethoxy-2,6-difluorobenzyl)-1H-indazol-3-yl]-5-[2-(methylsulfinyl)ethoxy]-N-(pyridin-4-yl)pyrimidin-4-amine] | – | – | IC50 (HeLa cells; [2]): 0.44 µM
CCOc1cc(F)c(Cn2nc(-c3ncc(OCC[S+](C)[O-])c(Nc4ccncc4)n3)c3ccccc32)c(F)c1 (single isomer, unassigned) [Example 36-3, 2-[1-(4-ethoxy-2,6-difluorobenzyl)-1H-indazol-3-yl]-5-[2-(methylsulfinyl)ethoxy]-N-(pyridin-4-yl)pyrimidin-4-amine] | – | – | IC50 (HeLa cells; [2]): 0.43 µM
COc1cnc(-c2nn(Cc3c(Cl)ccc(C)c3F)c3ccccc23)nc1Nc1ccncc1 [Example 2-1-1, 2-[1-(6-chloro-2-fluoro-3-methylbenzyl)-1H-indazol-3-yl]-5-methoxy-N-(pyridin-4-yl)pyrimidin-4-amine] | 0.0026 µM | 3.8 µM | –
COc1cnc(-c2nn(Cc3c(Cl)ccc(OC)c3F)c3ccccc23)nc1Nc1ccncc1 [Example 2-2-1, 2-[1-(6-chloro-2-fluoro-3-methoxybenzyl)-1H-indazol-3-yl]-5-methoxy-N-(pyridin-4-yl)pyrimidin-4-amine] | 0.0026 µM | 3.4 µM | –
COc1cnc(-c2nn(Cc3cc(C)c(C)cc3Cl)c3ccccc23)nc1Nc1ccncc1 [Example 2-3-1, 2-[1-(2-chloro-4,5-dimethylbenzyl)-1H-indazol-3-yl]-5-methoxy-N-(pyridin-4-yl)pyrimidin-4-amine] | 0.0044 µM | 3 µM | –
COc1cnc(-c2nn(Cc3ccc(S(F)(F)(F)(F)F)cc3)c3ccccc23)nc1Nc1ccncc1 [Example 2-3-3, 5-methoxy-2-{1-[4-(pentafluoro-λ^6-sulfanyl)benzyl]-1H-indazol-3-yl}-N-(pyridin-4-yl)pyrimidin-4-amine] | 0.36 µM | 8.5 µM | –
COc1cnc(-c2nn(Cc3ccccc3C#N)c3ccccc23)nc1Nc1ccncc1 [Example 2-5-3, 2-({3-[5-methoxy-4-(pyridin-4-ylamino)pyrimidin-2-yl]-1H-indazol-1-yl}methyl) benzonitrile] | 0.021 µM | – | IC50 (HeLa cells; [4]): ≥ 10 µM
COc1ccc(Cn2nc(-c3ncc(OC)c(Nc4ccncc4)n3)c3ccccc32)c(Cl)c1 [Example 2-6-1, 2-[1-(2-chloro-4-methoxybenzyl)-1H-indazol-3-yl]-5-methoxy-N-(pyridin-4-yl)pyrimidin-4-amine] | 0.0047 µM | 3.8 µM | –
COc1cnc(-c2nn(Cc3cccc4c3OCCCO4)c3ccccc23)nc1Nc1ccncc1 [Example 2-6-3, 2-[1-(3,4-dihydro-2H-1,5-benzo-dioxepin-6-ylmethyl)-1H-indazol-3-yl]-5-methoxy-N-(pyridin-4-yl)pyrimidin-4-amine] | 0.059 µM | – | IC50 (HeLa cells; [4]): ≥ 10 µM
COc1cnc(-c2nn(Cc3c(F)cccc3F)c3ccccc23)nc1Nc1ccncc1 [Example 2-7-1, 2-[1-(2,6-difluorobenzyl)-1H-indazol-3-yl]-5-methoxy-N-(pyridin-4-yl)pyrimidin-4-amine] | 0.0048 µM | – | IC50 (HeLa cells; [4]): ≥ 10 µM
COc1cnc(-c2nn(Cc3cccc(SC(F)(F)F)c3)c3ccccc23)nc1Nc1ccncc1 [Example 2-7-3, 5-methoxy-N-(pyridin-4-yl)-2-(1-{3-[(trifluoromethyl)sulfanyl]benzyl}-1H-indazol-3-yl)pyrimidin-4-amine] | 0.43 µM | – | IC50 (HeLa cells; [4]): ≥ 10 µM
CCOc1cc(F)c(Cn2nc(-c3ncc(OCCN4CCOCC4)c(Nc4ccncc4)n3)c3ccccc32)c(F)c1 [Example 4-12, 2-[1-(4-ethoxy-2,6-difluorobenzyl)-1H-indazol-3-yl]-5-[2-(morpholin-4-yl)ethoxy]-N-(pyridin-4-yl)pyrimidin-4-amine] | – | 9 µM | –
CCOc1cc(F)c(Cn2nc(-c3ncc(OCC(=O)N4CC(F)(F)C4)c(Nc4ccncc4)n3)c3ccccc32)c(F)c1 [Example 4-15, 1-(3,3-difluoroazetidin-1-yl)-2-({2-[1-(4-ethoxy-2,6-difluorobenzyl)-1H-indazol-3-yl]-4-(pyridin-4-ylamino)pyrimidin-5-yl}oxy)ethanone] | – | 3.9 µM | –
CCOc1cc(F)c(Cn2nc(-c3ncc(OCCSC)c(Nc4ccncc4)n3)c3ccccc32)c(F)c1 [Example 4-16, 2-[1-(4-ethoxy-2,6-difluorobenzyl)-1H-indazol-3-yl]-5-[2-(methylsulfanyl)ethoxy]-N-(pyridin-4-yl)pyrimidin-4-amine] | – | 4.4 µM | –
CCOc1cc(F)c(Cn2nc(-c3ncc(OCCOCCO)c(Nc4ccncc4)n3)c3ccccc32)c(F)c1 [Example 4-17, 2-[2-({2-[1-(4-ethoxy-2,6-difluorobenzyl)-1H-indazol-3-yl]-4-(pyridin-4-ylamino)pyrimidin-5-yl}oxy)ethoxy] ethanol] | – | – | IC50 (HeLa cells; [4]): 4.8 µM
OC[C@@H](O)COc1cnc(-c2nn(Cc3ccccc3F)c3ccccc23)nc1Nc1ccncc1 [Example 15-6, (2R)-3-({2-[1-(2-fluorobenzyl)-1H-indazol-3-yl]-4-(pyridin-4-ylamino)pyrimidin-5-yl}oxy)propane-1,2-diol hydrochloride (1:1)] | – | – | IC50 (HeLa cells; read-out: Biological Assay 2: Proliferation assay (HeLa cell line) median IC50, 4 days, crystal violet): ≥ 10 µM
CCOc1cc(O)c(Cn2nc(-c3ncc(OC)c(Nc4cc(C)nc(C)c4)n3)c3ccccc32)c(F)c1 [Example 24-6, 2-[(3-[4-[(2,6-dimethylpyridin-4-yl)amino]-5-methoxypyrimidin-2-yl}-1H-indazol-1-yl)methyl]-5-ethoxy-3-fluorophenol] | 0.94 µM | – | –
N#Cc1cnccc1Nc1nc(-c2nn(Cc3ccccc3F)c3ccccc23)ncc1Oc1ccncc1C#N [Example 26-2] | 2.4 µM | – | –
COc1cnc(-c2nn(Cc3ccc(C(=O)O)cc3Cl)c3ccccc23)nc1Nc1ccncc1 [Example 28-1, 3-chloro-4-({3-[5-methoxy-4-(pyridin-4-ylamino)pyrimidin-2-yl]-1H-indazol-1-yl}methyl)benzoic acid] | 3.7 µM | – | –
N#Cc1cnc(-c2nn(Cc3ccccc3F)c3ccccc23)nc1Nc1ccncc1 [Example 31-1, 2-[1-(2-fluorobenzyl)-1H-indazol-3-yl]-4-(pyridin-4-ylamino)pyrimidine-5-carbonitrile] | 4.7 µM | – | –
COc1ccc(Cn2nc(-c3ncc(OC)c(Nc4ccnc(C)c4)n3)c3ccccc32)cc1 [Example 34-4, 5-methoxy-2-[1-(4-methoxybenzyl)-1H-indazol-3-yl)-N-(2-methylpyridin-4-yl)pyrimidin-4-amine] | 0.12 µM | – | –
CCOc1cc(F)c(Cn2nc(-c3nccc(N(c4ccncc4)C(F)F)n3)c3ccccc32)c(F)c1 [Example 35-1, N-(difluoromethyl)-2-[1-(4-ethoxy-2,6-difluorobenzyl)-1H-indazol-3-yl]-N-(pyridin-4-yl)pyrimidin-4-amine] | 1.3 µM | – | –
CCOc1cc(F)c(Cn2nc(-c3ncc(OCCN)c(Nc4ccncc4)n3)c3ccccc32)c(F)c1 [Example 38-1, 5-(2-aminoethoxy)-2-[1-(4-ethoxy-2,6-difluorobenzyl)-1H-indazol-3-yl]-N-(pyridin-4-yl)pyrimidin-4-amine] | – | – | IC50 (HeLa cells; [4]): 1.4 µM
COc1cnc(-c2nn(Cc3c(Cl)ccc(N)c3Cl)c3ccccc23)nc1Nc1ccncc1 [Example 40-1, 2-[1-(3-amino-2,6-dichlorobenzyl)-1H-indazol-3-yl]-5-methoxy-N-(pyridin-4-yl)pyrimidin-4-amine] | 0.039 µM | – | –
